According to ChEMBL document CHEMBL5380880, “Novel drug-like fluorenyl derivatives as selective butyrylcholinesterase and β-amyloid inhibitors for the treatment of Alzheimer's disease” (Bioorg Med Chem, 2023):
Active and inactive are the calls of the source. The rule behind the calls is not given here.

What was measured:
[1] = Lipophilicity, logD of compound at pH 7.4; type: physicochemical; conditions: buffer
Cholinesterase = Cholinesterase (Equus caballus, UniProt P81908); test: Inhibition of equine serum BuChE by Ellman's method
[2] = target: Amyloid-beta precursor protein (Homo sapiens) (UniProt P05067); test: Inhibition of amyloid beta (unknown origin) aggregation at 10 uM incubated for 5 mins by thioflavin fluorescent based analysis relative to control
[3] = target: Cholinesterase (Equus caballus) (UniProt P81908); test: Inhibition of equine serum BuChE at 10 uM by Ellman's method relative to control
[4] = target: Cholinesterase (Equus caballus) (UniProt P81908); test: Inhibition of equine serum BuChE
[5] = target: Acetylcholinesterase (Electrophorus electricus) (UniProt O42275); test: Inhibition of Electric eel AChE relative to control; conditions: concentration not given here
[6] = Lipophilicity, logP of compound; type: physicochemical; conditions: octanol/water

Sequence of Amyloid-beta precursor protein (Homo sapiens) (P05067 whole entry): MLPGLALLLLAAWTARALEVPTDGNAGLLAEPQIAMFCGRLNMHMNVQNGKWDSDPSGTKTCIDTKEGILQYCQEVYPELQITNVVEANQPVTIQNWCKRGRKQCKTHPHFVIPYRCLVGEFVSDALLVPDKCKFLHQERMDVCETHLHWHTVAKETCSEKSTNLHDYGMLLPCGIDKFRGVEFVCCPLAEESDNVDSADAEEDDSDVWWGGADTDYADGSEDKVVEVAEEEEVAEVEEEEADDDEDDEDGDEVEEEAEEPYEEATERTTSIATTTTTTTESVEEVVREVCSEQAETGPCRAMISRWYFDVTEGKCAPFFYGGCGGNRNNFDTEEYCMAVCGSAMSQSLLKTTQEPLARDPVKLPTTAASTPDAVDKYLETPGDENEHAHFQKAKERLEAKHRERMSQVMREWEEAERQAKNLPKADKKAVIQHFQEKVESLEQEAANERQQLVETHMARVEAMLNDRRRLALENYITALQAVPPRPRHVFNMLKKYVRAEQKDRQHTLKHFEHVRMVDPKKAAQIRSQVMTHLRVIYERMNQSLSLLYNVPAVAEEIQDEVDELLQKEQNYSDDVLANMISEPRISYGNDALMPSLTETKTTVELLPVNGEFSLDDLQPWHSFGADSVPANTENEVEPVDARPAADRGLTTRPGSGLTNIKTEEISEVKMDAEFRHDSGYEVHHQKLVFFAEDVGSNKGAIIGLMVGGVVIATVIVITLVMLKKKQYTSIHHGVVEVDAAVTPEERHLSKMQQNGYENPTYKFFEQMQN
Sequence of Cholinesterase (P81908 whole entry): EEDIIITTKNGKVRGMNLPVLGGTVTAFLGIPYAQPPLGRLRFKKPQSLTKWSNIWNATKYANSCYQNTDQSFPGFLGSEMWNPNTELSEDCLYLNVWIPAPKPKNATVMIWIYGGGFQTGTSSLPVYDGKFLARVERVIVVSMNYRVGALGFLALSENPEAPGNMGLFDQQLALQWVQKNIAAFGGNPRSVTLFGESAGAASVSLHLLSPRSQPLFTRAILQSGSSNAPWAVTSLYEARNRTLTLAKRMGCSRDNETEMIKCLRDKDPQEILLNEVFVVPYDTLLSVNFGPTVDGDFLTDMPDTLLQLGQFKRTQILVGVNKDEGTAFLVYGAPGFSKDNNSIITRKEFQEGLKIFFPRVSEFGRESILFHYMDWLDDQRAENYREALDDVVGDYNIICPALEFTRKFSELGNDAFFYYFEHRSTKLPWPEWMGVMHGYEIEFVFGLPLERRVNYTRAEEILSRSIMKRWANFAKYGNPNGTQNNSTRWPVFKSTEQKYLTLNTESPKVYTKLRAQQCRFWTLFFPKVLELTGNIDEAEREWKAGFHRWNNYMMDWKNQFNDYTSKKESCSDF
Sequence of Cholinesterase (Equus caballus) (P81908 whole entry): as above
Sequence of Acetylcholinesterase (Electrophorus electricus) (O42275 24-633 limits assumed): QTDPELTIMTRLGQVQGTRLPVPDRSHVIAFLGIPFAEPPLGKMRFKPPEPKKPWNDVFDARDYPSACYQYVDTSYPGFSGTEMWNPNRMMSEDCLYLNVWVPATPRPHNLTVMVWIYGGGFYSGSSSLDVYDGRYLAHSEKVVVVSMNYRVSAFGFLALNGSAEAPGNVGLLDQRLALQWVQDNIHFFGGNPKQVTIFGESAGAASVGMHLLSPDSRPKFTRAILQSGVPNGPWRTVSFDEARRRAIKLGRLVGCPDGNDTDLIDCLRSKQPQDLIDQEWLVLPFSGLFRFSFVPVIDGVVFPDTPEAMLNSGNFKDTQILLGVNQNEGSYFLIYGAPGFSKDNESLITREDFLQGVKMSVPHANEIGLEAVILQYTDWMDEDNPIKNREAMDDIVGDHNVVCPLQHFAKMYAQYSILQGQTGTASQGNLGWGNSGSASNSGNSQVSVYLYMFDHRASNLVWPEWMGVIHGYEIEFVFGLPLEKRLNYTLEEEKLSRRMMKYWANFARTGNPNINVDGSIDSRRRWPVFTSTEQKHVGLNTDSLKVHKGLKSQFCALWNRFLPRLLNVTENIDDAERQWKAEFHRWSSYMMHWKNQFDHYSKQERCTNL

SMILES | logD [1] | IC50 (Cholinesterase) [nM] | inhibition [2] [%] | inhibition [3] [%] | inhibition [4] | inhibition [5] [%] | logP [6]
O=C(NCC(O)CNCC1CCCCC1)C1c2ccccc2-c2ccccc21 (racemic) | 0.91 | 231 | 4.6 |  |  |  | 
O=C(NCC(O)CNCC1CC1)C1c2ccccc2-c2ccccc21 (racemic) | -0.29 | 435 | 4.6 |  |  |  | 
CC(C)(C)CNCC(O)CNC(=O)CC1c2ccccc2-c2ccccc21 (racemic) | 0.73 | 672 | 4.6 |  |  |  | 
O=C(CC1c2ccccc2-c2ccccc21)NCC(O)CNCC1CC1 (racemic) | -0.1 |  | 4.6 | 44.5 | inactive | > 20 | 
O=C(CC(c1ccccc1)c1ccccc1)NCC(O)CNCC1CCCCC1 (centres undefined) | 1.43 | 78 | 4.6 |  |  |  | 
O=C(NCC(O)CNCc1ccccc1)C1c2ccccc2-c2ccccc21 (racemic) | 1.78 | 627 | 4.6 |  |  |  | 
O=C(NCC(O)CNCC(F)(F)F)C1c2ccccc2-c2ccccc21 (racemic) | 2.33 | 12900 | 67.6 |  |  |  | 
O=C(CC1c2ccccc2-c2ccccc21)NCC(O)CNCCC1CCCCC1 (racemic) | 1.6 | 422 | 4.6 |  |  |  | 
O=C(CC1c2ccccc2-c2ccccc21)NCC(O)CNCc1ccccc1 (racemic) | 1.88 | 4330 | 4.6 |  |  |  | 
O=C(CC1c2ccccc2-c2ccccc21)NCC(O)CNC1CCCCC1 (racemic) | 0.79 | 1490 | 4.6 |  |  |  | 
O=C(CC1c2ccccc2-c2ccccc21)NCC(O)CNCC1CCCCCC1 (racemic) | 1.55 | 1090 | 4.6 |  |  |  | 
O=C(CC1c2ccccc2-c2ccccc21)NCC(O)CNCC1CCCCC1 (racemic) | 1.1 | 1690 | 4.6 |  |  |  | 
O=C(NCC(O)CNC1CCCCC1)C1c2ccccc2-c2ccccc21 (racemic) | 0.6 | 336 | 4.6 |  |  |  | 
O=C(NCC(O)CNCCC1CCCCC1)C1c2ccccc2-c2ccccc21 (racemic) | 1.41 | 475 | 60.7 |  |  |  | 
CC(C)(C)CNCC(O)CNC(=O)C1c2ccccc2-c2ccccc21 (racemic) | 0.54 | 385 | 4.6 |  |  |  | 
O=C(NCC(O)CNCC1CCCC1)C1c2ccccc2-c2ccccc21 (racemic) | 0.47 | 379 | 4.6 |  |  |  | 
O=C(NC[C@@H](O)CNCC1CCCCCC1)C1c2ccccc2-c2ccccc21 |  | 31 | 4.6 |  |  |  | 
Nc1c2c(nc3ccccc13)CCCC2 |  |  | 4.6 |  |  |  | 
O=C(NCC(O)CNCC1CCCCCC1)C1c2ccccc2-c2ccccc21 (racemic) | 1.36 | 38 | 4.6 |  |  |  | 
O=C(CC1c2ccccc2-c2ccccc21)NCC(O)CNCC1CCCC1 (racemic) | 0.66 | 1710 | 4.6 |  |  |  | 
CC(C)(C)c1cccc(CNCC(O)CNCCC(c2ccccc2)c2ccccc2)c1 (centres undefined) | 3.7 |  | 4.6 |  |  |  | 5.96
O=C(NC[C@H](O)CNCC1CCCCCC1)C1c2ccccc2-c2ccccc21 |  | 288 | 4.6 |  |  |  | 
